Test results taken from publication PMC6009905, “Kushenol A and 8-prenylkaempferol, tyrosinase inhibitors, derived from Sophora flavescens” (Journal of Enzyme Inhibition and Medicinal Chemistry, 2018).
Several values for one entry are separate records, joined by “and”; a condition that tells them apart may be missing. Equal values may be shown once.

Assays:
[1] = molecular target: tyrosinase; set-up: method as in PMID 12951485, PMID 18175961; settings: read-out: IC50 on tyrosinase (previous report); cited from earlier work
[2] = ABTS radical assay; settings: triplicate; for IC50: log-dose inhibition curve, read-out: Scavenging activity of compounds on ABTS radical, SC50
Protocol: The ABTS radical cation assay was modified the method of Re et al.[15] Briefly, the mixture of 7.4 mM ABTS solution with 2.6 mM potassium persulfate incubated at room temperature in dark for 24 h. […] Fifty microliter of the inhibitor was reacted with 950 μL of the ABTS solution. Absorbance value was monitored during 10 min at 732 nm using a spectrophotometer. The free radical value (SC50) was calculated by the log-dose inhibition curve. Scavenging activity (%)=[1–(extract absorbance/control absorbance)]×100.

[3] = molecular target: T1, tyrosinase (Agaricus bisporus, UniProt C7FF04); assay: Tyrosinase enzyme kinetics (Lineweaver-Burk plots, secondary re-plot); assay type: biochemical; settings: 0.62-10 mM L-tyrosine
Protocol: Enzyme assay was performed according to the modified methods in the previous papers. For the calculation of inhibitory activity, 130 μL of tyrosinase (about 46 units/mL) solvated in 0.1 mM phosphate buffer (pH: 6.8) and 20 μL of 1–0.0078 mM concentrations of the inhibitors were mixed in a 96-well plate, and then 50 μL of 2 mM L-tyrosine in buffer was added in mixture. To test the enzyme kinetic study, 130 μL of tyrosinase and 20 μL of inhibitor were also mixed, and then 50 μL of 0.62–10 mM L-tyrosine was added in a 96-well plate. The mixture was recorded at UV-Vis 475 nm during 20 min. The inhibitory ratio was calculated according to the following equation: Inhibitory activity rate (%)=100–[(S20–S0/C20–C0]×100 where C20 and S20 are the intensity of control and inhibitor after 20 min, C0 and S0 are the intensity of control and inhibitor at 0 min.
This study confirmed the inhibitory mechanism of compounds 1–4 towards tyrosinase using enzyme kinetics. Enzyme kinetics were performed based on academic methods that examine a variety of substrate concentrations. The results were represented by Lineweaver–Burk plots, which confirmed the inhibition to […]. […]
Target sequence in this assay (C7FF04 2-392): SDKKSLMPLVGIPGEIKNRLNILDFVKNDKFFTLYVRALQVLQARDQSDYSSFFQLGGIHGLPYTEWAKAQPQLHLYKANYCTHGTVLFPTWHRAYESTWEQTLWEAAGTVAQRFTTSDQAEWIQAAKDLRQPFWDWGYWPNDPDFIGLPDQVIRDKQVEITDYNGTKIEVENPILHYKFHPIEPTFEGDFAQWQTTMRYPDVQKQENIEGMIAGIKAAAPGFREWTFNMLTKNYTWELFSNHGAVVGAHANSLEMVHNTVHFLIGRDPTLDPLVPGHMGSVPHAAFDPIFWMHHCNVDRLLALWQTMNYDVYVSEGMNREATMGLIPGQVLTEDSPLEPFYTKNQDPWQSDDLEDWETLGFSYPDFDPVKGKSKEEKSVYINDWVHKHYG

[4] = molecular target: T1, tyrosinase; assay: Tyrosinase assay (conversion of L-tyrosine to L-DOPA, UV-Vis 475 nm); assay type: biochemical; set-up: purchased Sigma-Aldrich T3824; settings: L-tyrosine substrate, triplicate; for inhibition at 100 µM: 100 μM inhibitor, read-out: Inhibitory activity of compounds on tyrosinase, 100 μM (%); for IC50: read-out: Inhibitory activity of compounds on tyrosinase, IC50
Protocol: Enzyme assay was performed according to the modified methods in the previous papers. For the calculation of inhibitory activity, 130 μL of tyrosinase (about 46 units/mL) solvated in 0.1 mM phosphate buffer (pH: 6.8) and 20 μL of 1–0.0078 mM concentrations of the inhibitors were mixed in a 96-well plate, and then 50 μL of 2 mM L-tyrosine in buffer was added in mixture. To test the enzyme kinetic study, 130 μL of tyrosinase and 20 μL of inhibitor were also mixed, and then 50 μL of 0.62–10 mM L-tyrosine was added in a 96-well plate.
Target sequence in this assay (C7FF04 1-392 limits assumed): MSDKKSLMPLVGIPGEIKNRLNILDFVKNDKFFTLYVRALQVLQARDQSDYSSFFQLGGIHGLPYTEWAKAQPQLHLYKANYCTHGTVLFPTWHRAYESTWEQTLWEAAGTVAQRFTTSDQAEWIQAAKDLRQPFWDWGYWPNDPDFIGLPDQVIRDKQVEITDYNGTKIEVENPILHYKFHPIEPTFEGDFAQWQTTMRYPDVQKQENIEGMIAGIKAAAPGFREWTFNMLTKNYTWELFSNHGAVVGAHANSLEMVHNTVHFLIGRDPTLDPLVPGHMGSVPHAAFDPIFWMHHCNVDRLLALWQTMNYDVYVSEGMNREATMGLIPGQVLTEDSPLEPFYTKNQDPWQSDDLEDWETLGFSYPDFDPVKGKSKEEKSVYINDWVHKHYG

[5] = system: HepG2 cells; assay: Measurement of intracellular ROS in H2O2-treated HepG2 cells; assay type: cell-based, Human; settings: 10 μM inhibitor 1 h, then 2 mM H2O2 30 min; negative control 100.0%, positive control 701.5%
Protocol: Human hepatoma HepG2 cells were cultured in DMEM supplemented with 10% FBS, 100 units/mL of penicillin and 100 μg/mL of streptomycin. Cells were maintained incubation at 37 °C under a 5% CO2[16].
The concentration of intracellular ROS was measured using a carboxy-H2DCFDA probe, as previously described. HepG2 cells were seeded into six-well plates at a density of 1 × 10^5 cells/mL and incubated for 24 h. After treatment with 10 μM concentrations of inhibitors 1–5 for 1 h, H2O2 (2 mM) was added to plates for 30 min. Cells were then incubated with 10 μM carboxy-H2DCFDA for 20 min, then cells were washed and harvested. Cells were immediately examined using a flow cytometer (Cytomics FC500; Beckman, Miami, FL).
To examine their antioxidant activity in vitro, pure compounds 1–5 were added to HepG2 cells, followed by addition of 2 mM H2O2. As shown in Figure 5(A), the respective negative (H2O2: –; I: –) and positive (H2O2: +; I: –) controls generated reactive oxygen species (ROS) of 100.0% ± 9.1% and 701.5% ± 46.9%. […] The viability of HepG2 cells following treatment with all compounds 1–5 at 10 μM ranged from 100.1% ± 6.1% to 103.8% ± 5.1% (Figure S6). Compound 2 caused an […].

Row | IC50 [2] | Binding mode [3] | inhibition at 100 µM [4] | IC50 [4] | Structure (SMILES) | IC50 [1] | Scavenging activity of compounds on ABTS radical, 25 μM (%) [2] | ROS generation [5]
1 |  |  |  |  | C=C(C)[C@H](CC=C(C)C)Cc1c(O)cc(OC)c(C(=O)/C=C/c2ccc(O)cc2O)c1O [kuraridin] | 0.6 µM |  | 
2 |  |  |  |  | C=C(C)[C@H](CC=C(C)C)Cc1c(O)cc(O)c2c1O[C@H](c1ccc(O)cc1O)CC2=O [sophoraflavanone G] | 6.6 µM |  | 
3 | 27.8 ± 0.5 µM |  |  |  | O=C1O[C@H]([C@@H](O)CO)C(O)=C1O [Ascorbic acid, reference compound] |  | 44.9 ± 0.9% | 
4 | 9.7 ± 0.1 µM | non-competitive inhibitors | 101 ± 3.3% | < 10 µM and 1.1 µM | C=C(C)[C@H](CC=C(C)C)Cc1c(O)cc(O)c2c1O[C@H](c1ccccc1O)CC2=O [Compound 1, kushenol A] |  | 93.7 ± 0.3% | 
5 | 22.8 ± 1.1 µM | non-competitive inhibitors | 91.9 ± 2% | 19.9 ± 1.7 µM | COc1ccc(-c2coc3cc(O)ccc3c2=O)cc1 [Compound 4, formononetin] |  | 53.3 ± 2.4% | 
6 |  |  |  |  | C=C(C)[C@H](CC=C(C)C)Cc1c(O)cc(OC)c2c1O[C@H](c1ccc(O)cc1O)CC2=O [kurarinone] | 6.2 µM |  | 
7 | 4.9 ± 0.3 µM | non-competitive inhibitors | 81.1 ± 0.1% | 24.1 ± 2.3 µM | C=C(C)C(CC=C(C)C)Cc1c(O)cc(O)c2c(=O)c(O)c(-c3ccc(O)cc3O)oc12 (stereo not shown) [Compound 3, kushenol C] |  | 94.1 ± 0.2% | 391.7% ± 56.3%
8 | 7.9 ± 0.3 µM | competitive inhibitor | 90.4 ± 3% | < 10 µM and 2.4 µM | CC(C)=CCc1c(O)cc(O)c2c(=O)c(O)c(-c3ccc(O)cc3)oc12 [Compound 2, 8-prenylkaempferol] |  | 93.2 ± 0.2% | 435.3% ± 43.0%
9 |  |  |  |  | C=C(C)C(CCC(C)(C)O)Cc1c(O)cc(OC)c(C(=O)/C=C/c2ccc(O)cc2O)c1O (stereo not shown) [kuraridinol] | 0.8 µM |  | 
10 | 7 ± 0.2 µM |  | 27 ± 2.9% |  | CC(C)=CCc1c(O)cc(O)c2c1O[C@H](c1ccc(O)cc1)CC2=O [Compound 5, 8-prenylnaringenin] |  | 91.5 ± 0.1% | 
